Source: ChEMBL document CHEMBL1122213, “Synthesis and study of a spin-labeled cyclophosphamide analogue, 3-(1-oxy-2,2,6,6-tetramethyl-4-piperidinyl)cyclophosphamide” (J Med Chem, 1982)
Calls of active or inactive are those of the source. The calls are words filed in the database; no cut-off is given here.

What was measured:
[1] = Half life was determined; type: ADME; settings: rat
[2] = Anticancer activity tested against L1210 lymphoid leukemia in BDF1 mice; range 25-100; type: ADME; settings: mouse
Mus musculus [3] = assay: Compound test for increase life span in mice after 100 mg/kg ip administration; type: functional; settings: route intraperitoneal
Mus musculus [4] = species on record: Mus musculus; assay: Effect tested against L1210 lymphoid leukemia in BDF1 mice an inoculum of l0E5 cells; Inactive; type: functional, organism-based
[5] = Anticancer activity tested against L1210 lymphoid leukemia in BDF1 mice; range 75-300; type: ADME; settings: mouse

SMILES | half-life [1] [min] | Activity (Mus musculus [4]) | further results
CC1(C)CC(NP(=O)(O)N(CCCl)CCCl)CC(C)(C)N1[O] | 51 |  | 
CC1(C)CC(NP(=O)(O)N(CCCl)CCCl)CC(C)(C)N1O.CC1(C)CC(NP(=O)(O)N(CCCl)CCCl)CC(C)(C)N1[O] [listing 1 of 2 here] |  |  | Sublethal dose [2]: > 100 mg/kg
CC1(C)CC(N2CCCOP2(=O)N(CCCl)CCCl)CC(C)(C)N1[O] (configuration not stated) |  | inactive | Increased (Mus musculus [3]): 64%; Sublethal dose [5]: > 300 mg/kg
CC1(C)CC(NP(=O)(O)N(CCCl)CCCl)CC(C)(C)N1O.CC1(C)CC(NP(=O)(O)N(CCCl)CCCl)CC(C)(C)N1[O] [listing 2 of 2 here] |  | inactive | 
CC1(C)CC(NP(=O)(O)N(CCCl)CCCl)CC(C)(C)N1O | 34 |  | 
